Results published in patent US20220041681A1 (MEDIMMUNE LIMITED, priority 2016, published 2022).
pEC50: −log10 of the molar value. ≈ marks a conversion by molar mass, not a printed value. Like-named read-outs stand apart in the source and are kept apart here. Numbered stars: 1 amine (or outer) side, 2 acyl side, 3 side chain; on linkers, the order of the positions; unused ones are H or OH. Side chains are listed from the residue outwards. Peptide text beside a SMILES is read from it. * marks the point of attachment. γGlu = O=C(O)[C@H](CCC(=O)[*:2])N[*:1]; Palmitoyl = CCCCCCCCCCCCCCCC(=O)*

Experiments:
[1] = biological target: T1, Human GIPr (Homo sapiens, UniProt P48546); test: cAMP activity assay (assay 1) in assay medium; assay type: cell-based; settings: Table 4, additional peptides, read-out: hGIPR EC50
T1 sequence (P48546 22-466): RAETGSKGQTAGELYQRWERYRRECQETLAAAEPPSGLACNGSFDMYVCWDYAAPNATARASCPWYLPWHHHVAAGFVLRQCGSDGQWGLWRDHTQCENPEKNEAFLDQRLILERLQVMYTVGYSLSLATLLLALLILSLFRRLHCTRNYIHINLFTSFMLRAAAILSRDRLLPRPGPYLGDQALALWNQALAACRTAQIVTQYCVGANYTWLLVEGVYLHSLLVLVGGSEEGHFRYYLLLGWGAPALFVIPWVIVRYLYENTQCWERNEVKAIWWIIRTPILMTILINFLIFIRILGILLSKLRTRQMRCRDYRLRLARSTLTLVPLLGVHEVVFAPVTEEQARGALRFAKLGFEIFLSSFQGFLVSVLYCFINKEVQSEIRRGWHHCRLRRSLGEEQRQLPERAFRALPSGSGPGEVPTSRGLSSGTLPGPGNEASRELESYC
Experimental: All sample dilutions were made in duplicate.
A frozen cryo-vial of cells expressing the receptor of interest was thawed rapidly in a water-bath, transferred to pre-warmed assay media and spun at 240×g for 5 minutes. Cells were re-suspended in assay media at an optimized concentration (e.g. hGCGR cells at 1×10^5 cells/ml, hGLP-1R and hGIPR cells at 0.5×10^5 cells/ml).
To this, 5 μL cell suspension was added and the plates incubated at room temperature for 30 minutes.
cAMP levels were measured using a commercially available cAMP dynamic 2 HTRF kit (Cisbio, Cat #62AM4PEJ), following the two step protocol as per manufacturer's recommendations. In brief; anti-cAMP cryptate (donor fluorophore) and cAMP-d2 (acceptor fluorophore) were made up separately by diluting each 120 in conjugate & lysis buffer provided in the kit. 5 μL anti-cAMP cryptate was added to all wells of the assay plate, and 5 μL cAMP-d2 added to all wells except non-specific binding (NSB) wells, to which conjugate and lysis buffer was added.

[2] = biological target: T2, Rat GlucR (Rattus norvegicus, UniProt P30082); test: cAMP assay in presence of serum albumin (assay 2), 3.2% rat serum albumin; assay type: cell-based; settings: relative potencies vs native ligands
T2 construct: expressed in transfected cells
T2 sequence (P30082 27-485): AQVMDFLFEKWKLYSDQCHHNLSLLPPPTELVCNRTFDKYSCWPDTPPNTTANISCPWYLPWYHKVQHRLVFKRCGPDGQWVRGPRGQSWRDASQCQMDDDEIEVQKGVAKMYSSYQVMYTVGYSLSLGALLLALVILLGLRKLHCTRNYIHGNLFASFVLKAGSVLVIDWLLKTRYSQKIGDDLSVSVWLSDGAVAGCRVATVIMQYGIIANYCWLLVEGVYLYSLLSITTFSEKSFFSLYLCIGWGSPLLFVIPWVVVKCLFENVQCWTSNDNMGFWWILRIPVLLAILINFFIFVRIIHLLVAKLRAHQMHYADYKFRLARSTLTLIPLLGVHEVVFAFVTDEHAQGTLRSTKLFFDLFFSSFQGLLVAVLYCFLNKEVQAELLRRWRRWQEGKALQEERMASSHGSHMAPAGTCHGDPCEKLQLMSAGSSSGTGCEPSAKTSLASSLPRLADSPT
Experimental: (§1) CHO cells with stable recombinant expression of the human, mouse or rat GlucR or GLP-t receptor were cultured in DMEM 10% FBS and geneticin (100 μg/mil). Cryopreserved cell stocks were prepared in 1× cell freezing medium-DMSO serum free (Sigma Aldrich) at 2×10^7/vial and stored at […]. […] Peptides were serially diluted in DMSO and then diluted 100 fold into DMEM containing serum albumin at stated final concentration. […] Cells were added to the assay plates and incubated for 30 min at room temperature. Following incubation the assay was stopped and cAMP levels measured using the HTRF® dynamic d2 cAMP assay kit available from CisBio Bioassays, as per the manufacturer's guidelines. Plates were read on Perkin Elmer ENVISION® fluorescence plate readers. Human and rat serum albumin were purchased from Sigma Aldrich and mouse serum albumin from Equitech Bio Ltd.

[3] = biological target: human serum albumin (Homo sapiens, UniProt P02768); test: Fraction of free peptide calculated from variation in cAMP generation with HSA concentration; settings: calculated from cAMP generation vs HSA concentration
human serum albumin, sequence (P02768 25-609): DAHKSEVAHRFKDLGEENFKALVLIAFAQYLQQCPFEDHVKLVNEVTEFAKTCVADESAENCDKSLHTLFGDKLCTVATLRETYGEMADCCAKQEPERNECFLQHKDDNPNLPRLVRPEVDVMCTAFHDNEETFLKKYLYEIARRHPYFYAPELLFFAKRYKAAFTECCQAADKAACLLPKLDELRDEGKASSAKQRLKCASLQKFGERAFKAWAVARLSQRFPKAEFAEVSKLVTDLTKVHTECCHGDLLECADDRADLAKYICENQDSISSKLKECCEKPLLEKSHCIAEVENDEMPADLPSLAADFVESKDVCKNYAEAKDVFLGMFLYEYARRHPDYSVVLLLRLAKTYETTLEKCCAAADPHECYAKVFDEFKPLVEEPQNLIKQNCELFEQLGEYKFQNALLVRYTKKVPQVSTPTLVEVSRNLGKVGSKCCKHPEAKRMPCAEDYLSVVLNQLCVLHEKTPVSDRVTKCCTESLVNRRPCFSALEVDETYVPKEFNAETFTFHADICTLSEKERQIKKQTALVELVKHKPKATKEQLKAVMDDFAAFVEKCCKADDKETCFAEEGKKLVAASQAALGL
Description: Data was transformed to % Delta F as described in manufacturer's guidelines and analysed by 4-parameter logistic fit to determine EC50 values. […] To compare the balance of activities at the GLP1R and GlucR between different peptides and across different conditions, these can be correlated using the calculation below, where the EC50's are related to those of the natural ligands.

[4] = Stability testing of peptides in plasma; assay type: in vitro ADME, mouse
Experimental: (§2) Stability testing of peptides in plasma.
(§3) Stock solutions of the peptides of about 200 μmol/L was prepared by weighing solid peptide into a Eppendorf Low Bind Tube and dissolved in DMSO. 10 μL of stock solutions were added to 990 μL of plasma in an Eppendorf Low Bind Tube, resulting in initial concentrations of the peptides in plasma of about 2 μmol/L. The frozen blank plasma from human, rat and mouse had been thawed and heated to a temperature of 37° C. before addition of the stock solution. The spiked plasma samples were gently mixed and allowed to equilibrate for about 5 minutes before start of experiment. The plasma samples were incubated for 48 hours in a GalaxyR CO2 incubator at 37° C. Sampling (30 μL) was performed at 0, 1, 2, 6.5, 17, 24 and 48 hours. The samples were stored at −70° C. until analysis.
(§4) Plasma samples were assayed as follows. The 30 μL plasma samples were protein precipitated with […] of cold ethanol in a 96-well low bind plate (Eppendorf Protein LoBind). After mixing and centrifugation, 100 μl the supernatant was transferred to a new plate and 1 μl was injected onto an analytical column.
(§5) The analysis was performed using a μLC-system (LC Exigent μLC) coupled to a medium high resolution mass spectrometer (Perkin Elmer PenTOF) with positive electrospray ionisation. The analytical column was a 5 cm, 1 mm Agilent Poroshell (custom made) C18-column with a particle size of 2.7 μm. Flow: 0.1 ml/min using a slow reversed phase gradient. Mobile phases used were acetonitrile and water containing 0.1% formic acid.
The resulting data were manually evaluated for the following degradation products: +1 product (acid) and the DPP IV-cleavage product. Products with +1 mass may arise from deamidation at amide groups of glutamine or at the C-terminus. Cleavage products arise from the action of the protease DPP IV in plasma. Both the degradation of the peptides and formation of peptide products were reported in percentage of the initial peptide concentration. Peaks were integrated and % remaining peptide was calculated: (peak area/peak area 0H)*100. […]

[5] = assay type: in vitro ADME, human
Experimental: as §2, §3, §4, §5
The resulting data were manually evaluated for the following degradation products: +1 product (acid) and the DPP IV-cleavage product. Products with +1 mass may arise from deamidation at amide groups of glutamine or at the C-terminus. Cleavage products arise from the action of the protease DPP IV in plasma. Both the degradation of the peptides and formation of peptide products were reported in percentage of the initial peptide concentration. Peaks were integrated and % remaining peptide was calculated: (peak area/peak area 0H)*100. Levels of deamidation and DPP IV cleavage were low for G797 and G933.

[6] = assay type: in vitro ADME, rat
Experimental: as §2, §3
as §4, with “column. […]” for “column.”
The resulting data were manually evaluated for the following degradation products: +1 product (acid) and the DPP IV-cleavage product. […] Peaks were integrated and % remaining peptide was calculated: (peak area/peak area 0H)*100. […]

[7] = Peptide solubility in buffers (A280); assay type: physicochemical; settings: target 1 mg/ml, read-out: Conc. (A280), solubility
Description: G7310 was soluble in a pH range of 4.5 to 8.0.

[8] = tested on: diet induced obesity (DIO) mouse model; test: Diet induced obesity (DIO) mouse model, study A; assay type: in vivo; settings: for BeHy / Insulin / Plasma NEFA: day 14
Description: Female C57/Bl6JHsdOla (obtained from Harlan Laboratories. UK) were started on a high fat diet of D12492 (Research Diets, NJ, USA) and a chocolate confection, delicato ball (Delicata Bakverk, Sweden) at 9-11 weeks of age, and were maintained on the diet for 16 weeks prior to arrival to the animal facility, during a three week acclimation period and during drug treatment, caloric content of the two components of the diet is shown in Table 11. The mice were divided into 9 groups (n=5-6), and treatment was started at 29 weeks of age.
The body weight of the animals was monitored daily throughout die dosing period. At day 14, blood samples for the measurement of plasma glucose and insulin from conscious mice were obtained after a 4-hour fasting period. Mice were then anaesthetized using isofluorane and terminal blood was collected from the capillary bed behind the eye. The following parameters were measured: blood chemistry measurements of triglycerides, total cholesterol, non-esterified fatty acids (NEFA), beta-hydroxybutyrate and fibroblast growth factor 21 (FGF21) (Tables 14 and 15 below).

[9] = Peptide solubility in isotonic formulations (DF, BF1, BF2); settings: formulation DF (DF/BF1 for G797)
Experimental: Formulations. Peptide solubility was assessed in three different isotonic formulations: • 1. […] Final formulation pH=7.2 • 2. Back up formulation 1 (BF1)=0.05M Tris, 50 nM Arginine/Proline. Final formulation pH=8.0 • 3. […] Final formulation pH=7.0

[10] = biological target: T3, Human GlucR (Homo sapiens, UniProt P47871); test: cAMP assay in presence of serum albumin (assay 2), 4.4% human serum albumin; assay type: cell-based; settings: relative potency GlucR / relative potency GLP1R vs native ligands
T3 construct: expressed in transfected cells
T3 sequence (P47871 26-477): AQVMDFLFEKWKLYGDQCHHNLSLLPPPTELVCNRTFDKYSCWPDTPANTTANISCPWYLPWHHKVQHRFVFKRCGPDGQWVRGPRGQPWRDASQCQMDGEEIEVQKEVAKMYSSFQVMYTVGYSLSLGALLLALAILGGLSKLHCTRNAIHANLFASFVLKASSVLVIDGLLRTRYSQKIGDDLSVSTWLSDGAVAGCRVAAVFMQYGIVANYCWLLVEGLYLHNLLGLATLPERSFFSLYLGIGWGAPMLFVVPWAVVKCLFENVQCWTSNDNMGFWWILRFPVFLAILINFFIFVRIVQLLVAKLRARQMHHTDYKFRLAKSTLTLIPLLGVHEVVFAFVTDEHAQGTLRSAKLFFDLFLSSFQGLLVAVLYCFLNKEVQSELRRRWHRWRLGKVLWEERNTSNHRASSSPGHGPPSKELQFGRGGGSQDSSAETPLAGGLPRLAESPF
Experimental: as §1

[11] = biological target: T4, Mouse GlucR (Mus musculus, UniProt Q61606); test: cAMP assay in presence of serum albumin (assay 2), 3.2% mouse serum albumin; assay type: cell-based; settings: relative potencies vs native ligands
T4 construct: expressed in transfected cells
T4 sequence (Q61606 27-485): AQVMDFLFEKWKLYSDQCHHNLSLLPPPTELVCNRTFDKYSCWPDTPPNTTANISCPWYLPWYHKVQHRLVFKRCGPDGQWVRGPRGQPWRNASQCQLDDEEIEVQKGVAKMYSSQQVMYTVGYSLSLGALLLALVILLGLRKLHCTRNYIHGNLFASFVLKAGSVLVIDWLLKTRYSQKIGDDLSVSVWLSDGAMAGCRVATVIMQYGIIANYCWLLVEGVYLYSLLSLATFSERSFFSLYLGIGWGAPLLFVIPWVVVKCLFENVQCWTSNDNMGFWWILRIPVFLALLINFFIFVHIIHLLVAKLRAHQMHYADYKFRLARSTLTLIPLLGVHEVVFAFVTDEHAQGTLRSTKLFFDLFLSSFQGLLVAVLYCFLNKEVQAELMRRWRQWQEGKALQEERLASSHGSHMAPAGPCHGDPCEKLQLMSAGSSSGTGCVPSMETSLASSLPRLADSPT
Experimental: as §1

CCCCCCCCCCCCCCCC(=O)N[C@@H](CCC(=O)NCCCC[C@H](NC(=O)[C@H](CO)NC(=O)[C@H](CC(=O)O)NC(=O)[C@H](CC(C)C)NC(=O)[C@H](Cc1ccc(O)cc1)NC(=O)[C@H](CCCCN)NC(=O)[C@H](CO)NC(=O)[C@H](Cc1ccc(O)cc1)NC(=O)[C@H](CC(=O)O)NC(=O)[C@H](CO)NC(=O)[C@@H](NC(=O)[C@H](Cc1ccccc1)NC(=O)[C@@H](NC(=O)CNC(=O)[C@H](CCC(N)=O)NC(=O)CNC(=O)[C@@H](N)Cc1c[nH]cn1)[C@@H](C)O)[C@@H](C)O)C(=O)N[C@@H](CCCNC(=N)N)C(=O)N[C@@H](C)C(=O)N[C@@H](CCCNC(=N)N)C(=O)N[C@@H](CC(=O)O)C(=O)N[C@@H](Cc1ccccc1)C(=O)N[C@H](C(=O)N[C@@H](CCC(=O)O)C(=O)N[C@@H](Cc1c[nH]c2ccccc12)C(=O)N[C@@H](CC(C)C)C(=O)N[C@H](C(=O)N[C@@H](C)C(=O)NCC(=O)NCC(N)=O)C(C)C)C(C)C)C(=O)O [g660] (H-HGQGTFTSDYSKYLDSK([γGlu-Palmitoyl])RARDFVEWLVAGG-NH2; N-terminus assumed)
pEC50 [1]: 8.48

CCCCCCCCCCCCCCCC(=O)N[C@@H](CCC(=O)NCCCC[C@H](NC(=O)[C@H](CCCCN)NC(=O)[C@H](CO)NC(=O)[C@H](Cc1ccc(O)cc1)NC(=O)[C@H](CC(=O)O)NC(=O)[C@H](CO)NC(=O)[C@@H](NC(=O)[C@H](Cc1ccccc1)NC(=O)[C@@H](NC(=O)CNC(=O)[C@H](CCC(N)=O)NC(=O)[C@H](CO)NC(=O)[C@@H](N)Cc1c[nH]cn1)[C@@H](C)O)[C@@H](C)O)C(=O)N[C@@H](CC(C)C)C(=O)N[C@@H](CC(=O)O)C(=O)N[C@@H](CO)C(=O)N[C@@H](CCC(=O)O)C(=O)N[C@@H](CCCNC(=N)N)C(=O)N[C@@H](C)C(=O)N[C@@H](CCCNC(=N)N)C(=O)N[C@@H](CC(=O)O)C(=O)N[C@@H](Cc1ccccc1)C(=O)N[C@H](C(=O)N[C@@H](C)C(=O)N[C@@H](Cc1c[nH]c2ccccc12)C(=O)N[C@@H](CC(C)C)C(=O)N[C@H](C(=O)N[C@@H](C)C(=O)NCC(=O)NCC(N)=O)C(C)C)C(C)C)C(=O)O [Peptide G730] (H-HSQGTFTSDYSKK([γGlu-Palmitoyl])LDSERARDFVAWLVAGG-NH2; N-terminus assumed)
Rat GlucR/GLP1R Ratio [2]: 0.05
free peptide at 4.4% HSA [3]: 0.85%
% +1 prod [4]: 15%
% stable peptide ([4]; mouse plasma, 37° C., 24 h): 65%
% +1 prod [5]: <1%
% DPP cleaved product/+1 DPP cleaved product [5]: <1%
% DPP cleaved product/+1 DPP cleaved product [6]: 2%
solubility ([7]; Tris buffer, Tris pH 7.5, 100 mM): 830 µg/mL (≈ 225 µM)
solubility ([7]; Tris buffer, Tris pH 8.0, 100 mM): 1100 µg/mL (≈ 298 µM)
solubility ([7]; glutamate buffer, Glutamate pH 4.5, 100 mM): 830 µg/mL (≈ 225 µM)
solubility ([7]; phosphate buffer, Phosphate pH 6, 100 mM): 140 µg/mL (≈ 37.9 µM)
solubility ([7]; phosphate buffer, Phosphate pH 6.5, 100 mM): 830 µg/mL (≈ 225 µM)
solubility ([7]; phosphate buffer, Phosphate pH 7.5, 100 mM): 850 µg/mL (≈ 230 µM)
BeHy ([8]; 10 nmol/kg): 426 u mol/l
Insulin ([8]; 10 nmol/kg): 0.4 nM
Plasma NEFA ([8]; 10 nmol/kg): 0.28 Mm
BeHy ([8]; 20 nmol/kg): 750 u mol/l
Insulin ([8]; 20 nmol/kg): 0.2 nM
Plasma NEFA ([8]; 20 nmol/kg): 0.26 Mm
BeHy ([8]; 50 nmol/kg): 1477 u mol/l
Insulin ([8]; 50 nmol/kg): 0.3 nM
Plasma NEFA ([8]; 50 nmol/kg): 0.32 Mm
body weight over the 14 day dosing period ([8]; study A, in words): dose dependent and continuous weight loss
glucose levels at day 14 ([8]; study A, in words): dose-dependent reduction in glucose levels
Formulation Concentration [9]: 5 mg/mL

CCCCCCCCCCCCCCCC(=O)N[C@@H](CCC(=O)NCCCC[C@H](NC(=O)[C@H](CO)NC(=O)[C@H](CC(=O)O)NC(=O)[C@H](CC(C)C)NC(=O)[C@H](Cc1ccc(O)cc1)NC(=O)[C@H](CCCCN)NC(=O)[C@H](CO)NC(=O)[C@H](Cc1ccc(O)cc1)NC(=O)[C@H](CC(=O)O)NC(=O)[C@H](CO)NC(=O)[C@@H](NC(=O)[C@H](Cc1ccccc1)NC(=O)[C@@H](NC(=O)CNC(=O)[C@H](CCC(N)=O)NC(=O)CNC(=O)[C@@H](N)Cc1c[nH]cn1)[C@@H](C)O)[C@@H](C)O)C(=O)N[C@@H](CCCNC(=N)N)C(=O)N[C@@H](C)C(=O)N[C@@H](CCC(N)=O)C(=O)N[C@@H](CC(=O)O)C(=O)N[C@@H](Cc1ccccc1)C(=O)N[C@H](C(=O)N[C@@H](CCC(N)=O)C(=O)N[C@@H](Cc1c[nH]c2ccccc12)C(=O)N[C@@H](CC(C)C)C(=O)N[C@H](C(=O)N[C@@H](C)C(=O)NCC(=O)NCC(N)=O)C(C)C)C(C)C)C(=O)O [Peptide G380]
Human GlucR/GLP1R Ratio [10]: 0.013
Mouse GlucR/GLP1R Ratio [11]: 0.006

CCCCCCCCCCCCCCCC(=O)N[C@@H](CCC(=O)NCCCC[C@H](NC(=O)[C@H](Cc1ccc(O)cc1)NC(=O)[C@H](CCCCN)NC(=O)[C@H](CO)NC(=O)[C@H](Cc1ccc(O)cc1)NC(=O)[C@H](CC(=O)O)NC(=O)[C@H](CO)NC(=O)[C@@H](NC(=O)[C@H](Cc1ccccc1)NC(=O)[C@@H](NC(=O)CNC(=O)[C@H](CCC(N)=O)NC(=O)[C@H](CO)NC(=O)[C@@H](N)Cc1c[nH]cn1)[C@@H](C)O)[C@@H](C)O)C(=O)N[C@@H](CC(=O)O)C(=O)N[C@@H](CO)C(=O)N[C@@H](CCCNC(=N)N)C(=O)N[C@@H](CCCNC(=N)N)C(=O)N[C@@H](C)C(=O)N[C@@H](CCC(N)=O)C(=O)N[C@@H](CC(=O)O)C(=O)N[C@@H](Cc1ccccc1)C(=O)N[C@H](C(=O)N[C@@H](CCC(N)=O)C(=O)N[C@@H](Cc1c[nH]c2ccccc12)C(=O)N[C@@H](CC(C)C)C(=O)N[C@@H](CCC(=O)O)C(=O)N[C@@H](C)C(=O)NCC(=O)NCC(N)=O)C(C)C)C(=O)O [g601] (H-HSQGTFTSDYSKYK([γGlu-Palmitoyl])DSRRAQDFVQWLEAGG-NH2; N-terminus assumed)
pEC50 [1]: 10.13
